# Patent publication US20230002367A1, “BIFUNCTIONAL COMPOUNDS” (Hoffmann-La Roche Inc., priority 2019, published 2023)
# Molecular target: T1, SMARCA2 (Homo sapiens, UniProt P51531)
# T1 construct: endogenous in cells
# Test: SMARCA2 HiBiT degradation assay (cellular)
# Format: cell-based
# Conditions: for Emax: A549, Emax = amount of residual protein remaining in the cell following compound treatment; for DC50: SMARCA2 HiBiT cells, luminescence readout, 11-point titration from 10 μM, 6 hours or 16 hours, read-out: HiBit A549 SMARCA2 IP
# T1 sequence (P51531 whole entry): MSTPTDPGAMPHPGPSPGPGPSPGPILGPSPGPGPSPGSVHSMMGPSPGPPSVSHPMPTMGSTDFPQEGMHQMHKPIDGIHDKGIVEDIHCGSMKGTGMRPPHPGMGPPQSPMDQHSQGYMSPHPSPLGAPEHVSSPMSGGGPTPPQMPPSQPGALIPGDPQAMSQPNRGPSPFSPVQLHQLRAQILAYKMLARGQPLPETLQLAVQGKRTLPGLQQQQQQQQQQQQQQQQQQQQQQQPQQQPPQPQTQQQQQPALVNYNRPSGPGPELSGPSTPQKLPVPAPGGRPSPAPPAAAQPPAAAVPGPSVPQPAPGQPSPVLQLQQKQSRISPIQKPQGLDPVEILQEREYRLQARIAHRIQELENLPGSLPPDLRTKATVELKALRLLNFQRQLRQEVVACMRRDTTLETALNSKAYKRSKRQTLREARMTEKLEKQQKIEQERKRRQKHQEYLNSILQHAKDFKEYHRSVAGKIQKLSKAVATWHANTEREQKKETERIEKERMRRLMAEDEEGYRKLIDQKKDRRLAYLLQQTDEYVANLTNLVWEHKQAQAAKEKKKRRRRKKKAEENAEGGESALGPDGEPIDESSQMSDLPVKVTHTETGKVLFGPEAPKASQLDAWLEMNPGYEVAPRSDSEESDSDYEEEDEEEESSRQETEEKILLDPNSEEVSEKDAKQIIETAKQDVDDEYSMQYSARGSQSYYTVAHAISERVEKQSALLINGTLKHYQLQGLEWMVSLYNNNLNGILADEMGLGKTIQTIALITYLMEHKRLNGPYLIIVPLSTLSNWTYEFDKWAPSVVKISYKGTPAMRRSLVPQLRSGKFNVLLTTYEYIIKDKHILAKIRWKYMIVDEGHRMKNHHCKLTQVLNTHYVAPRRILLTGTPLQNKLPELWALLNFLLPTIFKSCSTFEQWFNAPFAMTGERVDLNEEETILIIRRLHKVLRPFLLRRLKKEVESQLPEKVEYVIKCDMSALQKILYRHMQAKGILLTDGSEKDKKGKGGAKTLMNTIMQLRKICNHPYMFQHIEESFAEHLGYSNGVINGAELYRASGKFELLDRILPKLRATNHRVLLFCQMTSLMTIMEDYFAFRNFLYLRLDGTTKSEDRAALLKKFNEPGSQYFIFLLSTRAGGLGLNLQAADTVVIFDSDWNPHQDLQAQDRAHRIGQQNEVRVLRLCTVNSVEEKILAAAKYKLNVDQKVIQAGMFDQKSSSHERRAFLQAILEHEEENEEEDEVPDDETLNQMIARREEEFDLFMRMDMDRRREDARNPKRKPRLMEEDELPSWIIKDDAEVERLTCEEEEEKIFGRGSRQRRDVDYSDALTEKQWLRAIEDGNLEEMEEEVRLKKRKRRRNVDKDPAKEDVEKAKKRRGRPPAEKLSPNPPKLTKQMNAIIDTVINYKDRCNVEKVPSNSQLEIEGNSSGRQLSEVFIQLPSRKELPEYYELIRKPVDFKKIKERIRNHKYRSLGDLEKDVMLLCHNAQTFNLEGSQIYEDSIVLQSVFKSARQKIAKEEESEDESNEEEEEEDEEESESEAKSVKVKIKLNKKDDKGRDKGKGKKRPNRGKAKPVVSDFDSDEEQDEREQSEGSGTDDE
Structure (SMILES),Emax,DC50
"Cc1ncsc1-c1ccc([C@H](C)NC(=O)[C@@H]2C[C@@H](O)CN2C(=O)[C@@H](NC(=O)CCCCCCNC(=O)C(c2ccccc2)n2cc(-c3cc(-c4ccccc4O)nnc3N)cn2)C(C)(C)C)cc1 (mixture of isomers) [Example 75, rac-(2S,4R)-4-hydroxy-1-[rac-(2S)-2-[7-[[2-[4-[3-amino-6-(2-hydroxyphenyl)pyridazin-4-yl]pyrazol-1-yl]-2-phenyl-acetyl]amino]heptanoylamino]-3,3-dimethyl-butanoyl]-N-[rac-(1S)-1-[4-(4-methylthiazol-5-yl)phenyl]ethyl]pyrrolidine-2-carboxamide]",26%,0.777 µM
"Cc1ncsc1-c1ccc([C@H](C)NC(=O)[C@@H]2C[C@@H](O)CN2C(=O)[C@@H](NC(=O)CCCCCCCCCCCCC(=O)N2CCN(c3ccc(N4CCCC(Oc5cc(-c6ccccc6O)nnc5N)C4)cc3)CC2)C(C)(C)C)cc1 (mixture of isomers) [Example 76, rac-(2S,4R)-4-hydroxy-1-[rac-(2S)-2-[[14-[4-[4-[3-[3-amino-6-(2-hydroxyphenyl)pyridazin-4-yl]oxy-1-piperidyl]phenyl]piperazin-1-yl]-14-oxo-tetradecanoyl]amino]-3,3-dimethyl-butanoyl]-N-[rac-(1S)-1-[4-(4-methylthiazol-5-yl)phenyl]ethyl]pyrrolidine-2-carboxamide]",31%,0.207 µM
"Cc1ncsc1-c1ccc([C@H](C)NC(=O)[C@@H]2C[C@@H](O)CN2C(=O)[C@@H](NC(=O)CCCCCC(=O)N2CCN(CCOc3ccc(N4CCCC(Oc5cc(-c6ccccc6O)nnc5N)C4)cc3)CC2)C(C)(C)C)cc1 (mixture of isomers) [Example 77, rac-(2S,4R)-4-hydroxy-1-[rac-(2S)-2-[[7-[4-[2-[4-[3-[3-amino-6-(2-hydroxyphenyl)pyridazin-4-yl]oxy-1-piperidyl]phenoxy]ethyl]piperazin-1-yl]-7-oxo-heptanoyl]amino]-3,3-dimethyl-butanoyl]-N-[rac-(1S)-1-[4-(4-methylthiazol-5-yl)phenyl]ethyl]pyrrolidine-2-carboxamide]",24%,0.244 µM
"Cc1ncsc1-c1ccc([C@H](C)NC(=O)[C@@H]2C[C@@H](O)CN2C(=O)[C@@H](NC(=O)CCCCCCCCC(=O)N2CCN(CCOc3ccc(N4CCCC(Oc5cc(-c6ccccc6O)nnc5N)C4)cc3)CC2)C(C)(C)C)cc1 (mixture of isomers) [Example 78, rac-(2S,4R)-4-hydroxy-1-[rac-(2S)-2-[[10-[4-[2-[4-[3-[3-amino-6-(2-hydroxyphenyl)pyridazin-4-yl]oxy-1-piperidyl]phenoxy]ethyl]piperazin-1-yl]-10-oxo-decanoyl]amino]-3,3-dimethyl-butanoyl]-N-[rac-(1S)-1-[4-(4-methylthiazol-5-yl)phenyl]ethyl]pyrrolidine-2-carboxamide]",20%,0.063 µM
"Cc1ncsc1-c1ccc([C@H](C)NC(=O)[C@@H]2C[C@@H](O)CN2C(=O)[C@@H](NC(=O)CCCCCCCCCCC(=O)N2CCN(CCOc3ccc(N4CCCC(Oc5cc(-c6ccccc6O)nnc5N)C4)cc3)CC2)C(C)(C)C)cc1 (mixture of isomers) [Example 79, rac-(2S,4R)-4-hydroxy-1-[rac-(2S)-2-[[12-[4-[2-[4-[3-[3-amino-6-(2-hydroxyphenyl)pyridazin-4-yl]oxy-1-piperidyl]phenoxy]ethyl]piperazin-1-yl]-12-oxo-dodecanoyl]amino]-3,3-dimethyl-butanoyl]-N-[rac-(1S)-1-[4-(4-methylthiazol-5-yl)phenyl]ethyl]pyrrolidine-2-carboxamide]",21%,0.078 µM
"Cc1ncsc1-c1ccc([C@H](C)NC(=O)[C@@H]2C[C@@H](O)CN2C(=O)[C@@H](NC(=O)CCCCCCCCCCCCC(=O)N2CCN(CCOc3ccc(N4CCCC(Oc5cc(-c6ccccc6O)nnc5N)C4)cc3)CC2)C(C)(C)C)cc1 (mixture of isomers) [Example 80, rac-(2S,4R)-4-hydroxy-1-[rac-(2S)-2-[[14-[4-[2-[4-[3-[3-amino-6-(2-hydroxyphenyl)pyridazin-4-yl]oxy-1-piperidyl]phenoxy]ethyl]piperazin-1-yl]-14-oxo-tetradecanoyl]amino]-3,3-dimethyl-butanoyl]-N-[rac-(1S)-1-[4-(4-methylthiazol-5-yl)phenyl]ethyl]pyrrolidine-2-carboxamide]",25%,0.383 µM

# Results, then the compound that gave them:
Emax,DC50,Structure (SMILES)
34%,0.504 µM,"Cc1ncsc1-c1ccc([C@H](C)NC(=O)[C@@H]2C[C@@H](O)CN2C(=O)[C@@H](NC(=O)CCCCCCCCCCCCC(=O)N2CCN(CCOc3cccc(N4CCCC(Oc5cc(-c6ccccc6O)nnc5N)C4)c3)CC2)C(C)(C)C)cc1 (mixture of isomers) [Example 81, rac-(2S,4R)-4-hydroxy-1-[rac-(2S)-2-[[14-[4-[2-[3-[3-[3-amino-6-(2-hydroxyphenyl)pyridazin-4-yl]oxy-1-piperidyl]phenoxy]ethyl]piperazin-1-yl]-14-oxo-tetradecanoyl]amino]-3,3-dimethyl-butanoyl]-N-[rac-(1S)-1-[4-(4-methylthiazol-5-yl)phenyl]ethyl]pyrrolidine-2-carboxamide]"
62%,0.586 µM,"Cc1ncsc1-c1ccc([C@H](C)NC(=O)[C@@H]2C[C@@H](O)CN2C(=O)[C@@H](NC(=O)CCCCCCCCC(=O)N2CCN(Cc3cccc(C(C)Oc4cc(-c5ccccc5O)nnc4N)c3)CC2)C(C)(C)C)cc1 (mixture of isomers) [Example 82, rac-(2S,4R)-4-hydroxy-1-[rac-(2S)-2-[[10-[4-[[3-[l-[3-amino-6-(2-hydroxyphenyl)pyridazin-4-yl]oxyethyl]phenyl]methyl]piperazin-1-yl]-10-oxo-decanoyl]amino]-3,3-dimethyl-butanoyl]-N-[rac-(1S)-1-[4-(4-methylthiazol-5-yl)phenyl]ethyl]pyrrolidine-2-carboxamide]"
29%,0.423 µM,"Cc1ncsc1-c1ccc([C@H](C)NC(=O)[C@@H]2C[C@@H](O)CN2C(=O)[C@@H](NC(=O)CCCCCCCCCNC(=O)C(c2ccccc2)n2cc(-c3cc(-c4ccccc4O)nnc3N)cn2)C(C)(C)C)cc1 (mixture of isomers) [Example 88, rac-(2S,4R)-4-hydroxy-1-[rac-(2S)-2-[10-[[2-[4-[3-amino-6-(2-hydroxyphenyl)pyridazin-4-yl]pyrazol-1-yl]-2-phenyl-acetyl]amino]decanoylamino]-3,3-dimethyl-butanoyl]-N-[rac-(1S)-1-[4-(4-methylthiazol-5-yl)phenyl]ethyl]pyrrolidine-2-carboxamide]"
34%,1.32 µM,"Cc1ncsc1-c1ccc([C@H](C)NC(=O)[C@@H]2C[C@@H](O)CN2C(=O)[C@@H](NC(=O)CCCCCC(=O)N2CCN(c3cccc(N4CCCC(Oc5cc(-c6ccccc6O)nnc5N)C4)c3)CC2)C(C)(C)C)cc1 (mixture of isomers) [Example 90, rac-(2S,4R)-4-hydroxy-1-[rac-(2S)-2-[[7-[4-[3-[3-[3-amino-6-(2-hydroxyphenyl)pyridazin-4-yl]oxy-1-piperidyl]phenyl]piperazin-1-yl]-7-oxo-heptanoyl]amino]-3,3-dimethyl-butanoyl]-N-[rac-(1S)-1-[4-(4-methylthiazol-5-yl)phenyl]ethyl]pyrrolidine-2-carboxamide]"
44%,0.6 µM,"Cc1ncsc1-c1ccc([C@H](C)NC(=O)[C@@H]2C[C@@H](O)CN2C(=O)[C@@H](NC(=O)CCCCCCCCC(=O)N2CCN(c3cccc(N4CCCC(Oc5cc(-c6ccccc6O)nnc5N)C4)c3)CC2)C(C)(C)C)cc1 (mixture of isomers) [Example 91, rac-(2S,4R)-4-hydroxy-1-[rac-(2S)-2-[[10-[4-[3-[3-[3-amino-6-(2-hydroxyphenyl)pyridazin-4-yl]oxy-1-piperidyl]phenyl]piperazin-1-yl]-10-oxo-decanoyl]amino]-3,3-dimethyl-butanoyl]-N-[rac-(1S)-1-[4-(4-methylthiazol-5-yl)phenyl]ethyl]pyrrolidine-2-carboxamide]"
45%,0.56 µM,"Cc1ncsc1-c1ccc([C@H](C)NC(=O)[C@@H]2C[C@@H](O)CN2C(=O)[C@@H](NC(=O)CCCCCCCCCCC(=O)N2CCN(c3cccc(N4CCCC(Oc5cc(-c6ccccc6O)nnc5N)C4)c3)CC2)C(C)(C)C)cc1 (mixture of isomers) [Example 92, rac-(2S,4R)-4-hydroxy-1-[rac-(2S)-2-[[12-[4-[3-[3-[3-amino-6-(2-hydroxyphenyl)pyridazin-4-yl]oxy-1-piperidyl]phenyl]piperazin-1-yl]-12-oxo-dodecanoyl]amino]-3,3-dimethyl-butanoyl]-N-[rac-(1S)-1-[4-(4-methylthiazol-5-yl)phenyl]ethyl]pyrrolidine-2-carboxamide]"
55%,0.579 µM,"Cc1ncsc1-c1ccc([C@H](C)NC(=O)[C@@H]2C[C@@H](O)CN2C(=O)[C@@H](NC(=O)CCCCCCCCCCCCC(=O)N2CCN(c3cccc(N4CCCC(Oc5cc(-c6ccccc6O)nnc5N)C4)c3)CC2)C(C)(C)C)cc1 (mixture of isomers) [Example 93, rac-(2S,4R)-4-hydroxy-1-[rac-(2S)-2-[[14-[4-[3-[3-[3-amino-6-(2-hydroxyphenyl)pyridazin-4-yl]oxy-1-piperidyl]phenyl]piperazin-1-yl]-14-oxo-tetradecanoyl]amino]-3,3-dimethyl-butanoyl]-N-[rac-(1S)-1-[4-(4-methylthiazol-5-yl)phenyl]ethyl]pyrrolidine-2-carboxamide]"
40%,1.15 µM,"Cc1ncsc1-c1ccc(CNC(=O)[C@@H]2C[C@@H](O)CN2C(=O)[C@@H](NC(=O)CCCCCCCCC(=O)N2CCC(CNC(=O)C3CN(c4cc(-c5ccccc5O)nnc4N)CCN3c3ccccc3)CC2)C(C)(C)C)cc1 (mixture of isomers) [Example 97, 4-[3-amino-6-(2-hydroxyphenyl)pyridazin-4-yl]-N-[[1-[10-oxo-10-[[rac-(1S)-2,2-dimethyl-1-[rac-(2S,4R)-4-hydroxy-2-[[4-(4-methylthiazol-5-yl)phenyl]methylcarbamoyl]pyrrolidine-1-carbonyl]propyl]amino]decanoyl]-4-piperidyl]methyl]-1-phenyl-piperazine-2-carboxamide]"
